# Data published in patent US20220275371A1, “USE OF RAB7 GTPASE (RAB7) INHIBITORS IN ENHANCING PERMEABILITY OF THE BLOOD BRAIN BARRIER (BBB)” (Children's Medical Center Corporation, priority 2019, published 2022).
# Structures can show the parent of a compound that is named as a salt.
# What was measured:
# Format in all cases: cell-based, human
# astrocytes = test: TdTom-EV uptake by astrocytes with endocytosis inhibitors (flow cytometry); conditions: 30 min pretreatment: chlorpromazine 20 μM, EIPA 50 μM, filipin III 10 μM, ML141 100 μM, CAS 1177865-17-6 10 μM; 3 hours with EVs
# From the text: To elucidate the mechanisms underlying the uptake of breast cancer-derived EVs by astrocytes, the possibility of the involvement of specific endocytosis mechanism(s) in this uptake was explored. Endocytic pathways such as macropinocytosis, clathrin-dependent and caveolin-dependent endocytosis have been commonly reported to be involved in the uptake of EVs by different cell types^16.
# Next, the role of clathrin-caveolin-independent pathways in EV uptake was explored, focusing on rac1 and Cdc42, two major players in this process^17.
# To evaluate the uptake of EVs by astrocytes for endocytosis inhibition studies, astrocytes were treated with chlorpromazine hydrochloride (Millipore Sigma, Cat #C8138, 20 μM), 5-(N-Ethyl-N-isopropyl) amiloride (EIPA) (50 μM, Tocris, Cat #3378), and filipin III (10 μM, Millipore Sigma, Cat #F4767), CDC42/Rac1 inhibitor, ML141 (100 μM, Millipore Sigma, Cat #217708), and rac1 inhibitor, CAS 1177865-17-6 (10 μM, Millipore Sigma, Cat #553502) for 30 min.
# [1] = test system: brain endothelial monolayer; test: Static Transwell BBB model, transport of Gaussia luciferase-labeled Br-EVs; conditions: 30 min pretreatment, then Br-EVs 2 hours at 37° C.
# Description: To verify that the source of the detected signal in the abluminal chamber was the luciferase associated with intact EVs as opposed to free luciferase, the media from the lower chamber was ultracentrifuged on an iodixanol OPTIPREP™ density gradient. As a positive control, Gaussia luciferase-labeled Br-EVs were added directly to the top of a gradient for ultracentrifugation.
# To evaluate the effect of temperature, filters were incubated at either 4° C. or 37° C. To evaluate the effect of endocytosis, filters were pretreated with Dynasore hydrate (Millipore Sigma, Cat #D7693) for 30 minutes prior to adding the EVs and then incubated at 37° C. The media from the lower chamber was collected after 2 hours and luminescence intensity was measured as described before. […] After 4 hours of ultracentrifugation, different density fractions were isolated and luminescence intensity was measured for each fraction. […] After 2 hours of incubation, the permeability of the filters to 10 KDa ALEXA FLUOR™ 647 Dextran and 70 KDa FITC-dextran was measured as described above.
# brain endothelial cells = test: TdTom-Br-EV uptake by brain endothelial cells with endocytosis inhibitors (flow cytometry); conditions: 30 min pretreatment: chlorpromazine 20 μM, ML141 100 μM, EIPA 100 μM, cytochalasin D 500 nM, filipin III 10 μM; 3 hours with EVs
# From the text: The mechanistic details of Br-EV transport was further explored through brain endothelial cells by focusing on the three major steps of transcytosis: 1) endocytosis through the apical (luminal) membrane of brain endothelial cells, 2) transfer through the endocytic pathway, and 3) release into the extracellular environment from the basolateral (abluminal) membrane. To evaluate the mechanism(s) of uptake, brain endothelial cells were pretreated with chemical inhibitors of the different endocytosis pathways and measured the uptake of TdTom-Br-EVs via flow cytometry.
# To evaluate the uptake of EVs by brain ECs, astrocytes and pericytes, cells grown to confluence in 96-well plates were incubated with 2×10^9 particle/well of tdTomato P- and Br-EVs. After 2 hours of incubation, cells were washed for 3 times and were fixed for imaging. Images from four different fields were taken using a Zeiss Fluorescent microscope and the level of fluorescence intensity was analyzed using the ImageJ software. To eliminate the confounding effect of cell size on the uptake level, fluorescent intensity for tdTom-EVs was measured per unit of cell surface area. For endocytosis inhibition studies, brain ECs cultured in 12-well plates were treated with chlorpromazine hydrochloride (Millipore Sigma, Cat #C8138, 20 μM), ML141 (100 μM, Millipore Sigma, Cat #217708), 5-(N-Ethyl-N-isopropyl) amiloride (EIPA) (100 μM, Tocris, Cat #3378), cytochalasin D (500 nM, Tocris, Cat #1233), and filipin III (10 μM, Millipore Sigma, Cat #F4767) for 30 minutes prior to addition of TdTom-Br-EVs (10^10 particle/well). Following 3 hours of incubation with EVs, cells were washed and EV uptake was measured by flow cytometry using a BD FACSCalibur flow cytometer (BD Biosciences, San Jose, Calif.).
Compound,uptake of breast cancer-derived EVs by astrocytes (astrocytes),abluminal signal of Br-EV transport [1],uptake of Br-EVs by brain endothelial cells (brain endothelial cells)
CCN(CC)CCCC(C)Nc1nc(C)cc(Nc2ccc3nc(C)cc(N)c3c2)n1.Cl.Cl.Cl (centres unmarked) [CAS 1177865-17-6],no effect,–,–
O=C(N/N=C/c1ccc(O)c(O)c1)c1cc2ccccc2cc1O [Dynasore],–,dose-dependent decrease,–
"CCN(c1nc(N)c(C(=O)N=C(N)N)nc1Cl)C(C)C [EIPA, 5-(N-Ethyl-N-isopropyl) amiloride]",did not affect,–,significant decrease
"CCCCC[C@@H](O)[C@H]1C(=O)O[C@H](C)[C@@H](O)/C=C/C=C/C=C/C=C/C=C(\C)[C@@H](O)C[C@H](O)C[C@H](O)C[C@H](O)C[C@H](O)C[C@H](O)C[C@@H]1O [Filipin, filipin III]",did not affect,–,no effect
COc1ccc(C2=NN(c3ccc(S(N)(=O)=O)cc3)C(c3ccccc3)C2)cc1 (centres unmarked) [ML141],significantly decreased,–,significantly decreased
"CN(C)CCCN1c2ccccc2Sc2ccc(Cl)cc21 [chlorpromazine, chlorpromazine hydrochloride]",did not affect,–,significantly decreased
C=C1[C@@H](C)[C@H]2[C@H](Cc3ccccc3)NC(=O)[C@]23[C@H](OC(C)=O)/C=C/[C@@](C)(O)C(=O)[C@@H](C)C/C=C/[C@H]3[C@@H]1O [cytochalasin D],–,–,significant decrease
